Legend:
[1] = system: Pyricularia oryzae (rice blast); test: whole plant or invertebrate; format: in vivo; settings: foliar spray, 400 ppm (+++: 100 ppm); for PYRIOR disease control: host rice; for pest or weed control at 400 µg/mL: Pyricularia oryzae, foliar, read-out: PYRIOR disease control, host rice
[2] = system: aster leafhopper (Macrosteles fascifrons); test: whole plant or invertebrate; format: in vivo; settings: for ALH percent mortality / mortality at 400 ppm: 400 ppm; for ALH percent mortality: 24 hours, 1440 min; for mortality at 50 ppm / mortality at 400 ppm: Macrosteles fascifrons, 24 h, read-out: ALH percent mortality
In short: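 Compounds were formulated in water with Tween 20 and acetone/EtOH and tested at 400 and 50 ppm. Percent mortality was scored after 24 h at room temperature.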

[3] = system: beet armyworm (Spodoptera exiqua); test: Activity against beet armyworm; format: in vivo; settings: 6 days; for BAW activity (rated on live and dead larvae and size of live larvae) / pest or weed control at 400 ppm: 400 ppm; for pest or weed control at 50 ppm / pest or weed control at 400 ppm: Spodoptera, 144 h, read-out: BAW activity (rated on live and dead larvae and size of live larvae)
In short: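 Compounds formulated in acetone/EtOH with aqueous 0.05% Tween 20, tested at 400 and 50 ppm. Half-strength lepidopteran agar diet cups carrying 35-40 beet armyworm eggs sprayed through a flat-fan nozzle, dried, sealed and held 6 days at room temperature. Rated by live and dead larval counts and live larval size.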

[4] = system: Southern corn rootworm (Diabrotica undecimpuctata howardi Barber); test: whole plant or invertebrate; format: in vivo; settings: 400 ppm, soil concentration of 24 ppm, 3-4 days, read-out: SCRW mortality
Procedure: (§1) The compounds identified in Table I were tested for miticidal and insecticidal activity against eight species. The following abbreviations are used in the Table III:
SCRW refers to southern corn rootworm
(§2) In conducting evaluations of insecticidal activity, each test compound was formulated as a 400 ppm solution, and this solution was then diluted with water to give lesser concentrations. The 400 ppm solution was prepared by combining 19.2 mL of 0.05% solution of Tween 20 (polyoxyethylene (20) sorbitan monolaurate) in water with a solution of 8 mg of the compound in 0.8 mL of acetone/EtOH (9/1).
Activity on Southern corn rootworm (Diabrotica undecimpuctata howardi Barber) was evaluated by adding one mL of test solution containing a predetermined concentration of test compound to a cup containing a kernel of corn in 16 g of sterile soil. This produces a soil concentration of 24 ppm. After 1.5 to 2 hours of drying, five 4th instar corn rootworm larvae were added to the individual cups. Mortality was measured at 3-4 days by emptying the cup onto a pan and inspecting the soil for live rootworms.

[5] = system: tobacco budworm (Heliothis virescens); test: Activity against tobacco budworm; format: in vivo; settings: 6 days; for TBW activity (rated on live and dead larvae and size of live larvae) / pest or weed control at 400 ppm: 400 ppm
In short: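 Compounds formulated in acetone/EtOH with aqueous Tween 20 and sprayed at 400 and 50 ppm onto half-strength lepidopteran diet cups seeded 1 h earlier with 18–20 eggs. After 6 days at room temperature, activity rated from live and dead larval counts and live larva size.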

[6] = system: German cockroach (Blattella germanicus); test: whole plant or invertebrate; format: in vivo; settings: 240 h, ten days, read-out: GECR activity (rated on live and dead insects)
Procedure: as §1
GECR refers to German cockroach
as §2
Activity against German cockroach (Blattella germanicus) was evaluated as follows. 8 mL of alfalfa based green insect diet material was dispensed into a one ounce diet cup. The cups were then sprayed with formulated material through a flat-fan nozzle. The test was run using concentrations of 400 ppm and 50 ppm. Treated cups were air dried for 24 hours and infested with five late third or early fourth instar German cockroaches. The cups were capped and held for ten days in an environmental growth chamber at a temperature of […]. Activity was then rated based on the total number of live and dead insects.

[7] = system: cotton aphid (Aphis gossypii); settings: 400 ppm, squash plants, three days after treatment, 4320 min
[8] = system: two spotted spider mite (Tetranychus urticae); settings: 400 ppm, squash plants, three days after treatment, 4320 min
[9] = system: Plasmopara viticola (downy mildew); test: Foliar spray fungicide test, Plasmopara viticola (downy mildew) on grape; settings: for pest or weed control at 400 µg/mL: Plasmopara viticola, foliar, read-out: PLASVI disease control
Procedure: (§3) The test compounds were formulated for application by dissolving 50 mg of the compound into 1.25 ml of solvent. The solvent was prepared by mixing 50 ml of "Tween 20" (polyoxyethylene (20) sorbitan monolaurate emulsifier) with 475 ml of acetone and 475 ml of ethanol. The solvent/compound solution was diluted to 125 ml with deionized water. The resulting formulation contains 400 ppm test chemical. Lower concentrations were obtained by serial dilution with the solvent-surfactant mixture.
(§4) The formulated test compounds were applied by foliar spray.
(§5) The formulated technical compounds were sprayed on all foliar surfaces of the host plants to past run-off. Single pots of each host plant were placed on raised, revolving pedestals in a fume hood. Test solutions were sprayed on all foliar surfaces. All treatments were allowed to dry and the plants were inoculated with the appropriate pathogens within 24 hours.
(§6) The effectiveness of test compounds in controlling disease was rated using the following scale.

[10] = system: Leptosphaeria nodorum (glume blotch); test: Foliar spray fungicide test, Leptosphaeria nodorum (glume blotch) on wheat; settings: for LETPNO disease control: host wheat, 400 ppm (+++: 100 ppm); for pest or weed control at 400 µg/mL: Parastagonospora nodorum, in Triticum aestivum, foliar, read-out: LETPNO disease control, host wheat, 400 ppm (+++: 100 ppm)
Procedure: as §3, §4, §5, §6

[11] = system: Puccinia recondita tritici (leaf rust); test: Foliar spray fungicide test, Puccinia recondita tritici (leaf rust) on wheat; settings: for PUCCRT disease control: host wheat, 400 ppm (+++: 100 ppm); for pest or weed control at 400 µg/mL: Puccinia recondita, in Triticum aestivum, foliar, read-out: PUCCRT disease control, host wheat, 400 ppm (+++: 100 ppm)
[12] = system: Erysiphe graminis tritici (powdery mildew); test: Foliar spray fungicide test, Erysiphe graminis tritici (powdery mildew) on wheat; settings: for ERYSGT disease control: host wheat, 400 ppm (+++: 100 ppm); for pest or weed control at 400 µg/mL: Blumeria graminis, in Triticum aestivum, foliar, read-out: ERYSGT disease control, host wheat, 400 ppm (+++: 100 ppm)
Procedure: as §3
The formulated test compounds were applied by foliar spray. The following plant pathogens and their corresponding plants were employed.
as §5, §6

[13] = system: Southern corn rootworm (Diabrotica undecimpuctata howardi Barber); test: whole plant or invertebrate; format: in vivo; settings: 3-4 days, read-out: SCRW mortality
[14] = system: cotton aphid (Aphis gossypii); test: whole plant or invertebrate; settings: 72 h; for mortality at 50 ppm: read-out: CA activity (percent based on aphids present in plants sprayed with solvent alone), 50 ppm, squash plants, three days after treatment; for mortality at 400 ppm: read-out: CA activity (percent based on aphids present in plants sprayed with solvent alone), 400 ppm, squash plants, three days after treatment
[15] = system: two spotted spider mite (Tetranychus urticae); test: whole plant or invertebrate; settings: 72 h; for mortality at 400 ppm: read-out: TSSM activity (percent based on mites present in plants sprayed with solvent alone), 400 ppm, squash plants, three days after treatment
[16] = Heliothis virescens, 144 h, read-out: TBW activity (rated on live and dead larvae and size of live larvae)

Row | SMILES | PYRIOR disease control [1] | ALH percent mortality [2] [%] | BAW activity (rated on live and dead larvae and size of live larvae) [3] | mortality at 24 ppm [4] [%] | TBW activity (rated on live and dead larvae and size of live larvae) [5] | mortality at 400 ppm [6] [%] | CA activity (percent based on aphids present in plants sprayed with solvent alone) [7] [%] | TSSM activity (percent based on mites present in plants sprayed with solvent alone) [8] [%] | LETPNO disease control [10] | PUCCRT disease control [11] | ERYSGT disease control [12] | pest or weed control at 400 µg/mL [1] [%] | mortality at 50 ppm [2] [%] | mortality at 400 ppm [2] [%] | pest or weed control at 50 ppm [3] [%] | pest or weed control at 400 ppm [3] [%] | pest or weed control at 400 ppm [5, 16] [%] | mortality at 50 ppm [13] [%] | mortality at 50 ppm [14] [%] | pest or weed control at 400 µg/mL [9] [%] | further results
1 | Fc1cccc2c(OCCc3ccc(Oc4nc(Cl)c(Cl)cc4Cl)cc3)ncnc12 [Compound 44] | + (20-89% control at 400 ppm) | 0 | 100 | 100 | 100 | 20 | 100 | 50 | + (20-89% control at 400 ppm) | +++ (90-100% control at 100 ppm) | +++ (90-100% control at 100 ppm) |  |  |  |  |  |  |  |  |  | PLASVI disease control ([9]; host grape, foliar spray, 400 ppm (+++: 100 ppm)): + (20-89% control at 400 ppm)
2 | c1ccc2c(OCCc3ccc(Oc4cnccn4)cc3)ncnc2c1 [Compound 51] |  |  |  | 100 |  | 0 |  |  |  |  |  | 90 to 100 | 100 | 100 | 100 | 100 | 100 | 0 | 0 | 90 to 100 | pest or weed control at 50 ppm ([5]; Heliothis virescens, 144 h, 50 ppm, read-out: TBW activity (rated on live and dead larvae and size of live larvae)): 100%; mortality at 50 ppm ([6]; 50 ppm): 0%; mortality at 400 ppm [14]: 0%; mortality at 50 ppm ([15]; read-out: TSSM activity (percent based on mites present in plants sprayed with solvent alone), 50 ppm, squash plants, three days after treatment): 0%; mortality at 400 ppm [15]: 0%; pest or weed control at 400 µg/mL [10]: 90 to 100%; pest or weed control at 400 µg/mL [11]: 0 to 19%; pest or weed control at 400 µg/mL [12]: 90 to 100%
3 | Fc1cccc2c(OCCc3ccc(Oc4nc(Cl)c(Cl)cc4Cl)cc3)ncnc12 [Compound 42] | - (0-19% control at 400 ppm) | 60 | 0 |  | 0 |  | 0 | 0 | - (0-19% control at 400 ppm) | + (20-89% control at 400 ppm) | - (0-19% control at 400 ppm) |  |  |  |  |  |  |  |  | 20 to 89 | 
4 | Fc1cccc2c(OCCc3ccc(Oc4ccc(C(F)(F)F)cn4)cc3)ncnc12 [Compound 27, 8-Fluoro-4-(2-(4-(5-(trifluoromethyl)-2-pyridinyloxy)phenyl)ethoxy)quinazoline] |  |  |  | 100 |  |  |  |  |  |  |  | 90 to 100 | 100 | 100 | 100 | 100 | 100 | 100 | 90 | 90 to 100 | mortality at 400 ppm [14]: 100%; mortality at 400 ppm [15]: 100%; pest or weed control at 400 µg/mL [10]: 0 to 19%; pest or weed control at 400 µg/mL [11]: 90 to 100%; pest or weed control at 400 µg/mL [12]: 90 to 100%
